“Also recorded” adds a separate entry of the source. Read-outs that look alike come from different tables or passages of the source.
Tests used:
[1] = compared with celecoxib; cited from earlier work
[2] = target: vascular L-type Ca^2+ channels (Homo sapiens, UniProt Q13936); details: vascular smooth muscle cells
Method: The activities were measured for two types of ion channels that are perhaps the most important in determining the contractile state of vascular smooth muscle cells: potassium (K^+) channels, which determine the resting membrane voltage, and voltage-sensitive calcium (Ca^2+) channels (VSCC), the activation of which allows Ca^2+ influx and vasoconstriction. […] The actions of these drugs can be assessed at the level of isolated arterial myocytes and intact pressurized arteries.

KCNQ channels = assay: Patch-clamp of KCNQ currents in rat airway myocytes (ASMCs); format: cell-based
Method: An investigation relating to these aspects of the invention was conducted to determine whether KCNQ (Kv7) K^+ channels are expressed and functional in rat airway myocytes. To accomplish this, a combination of real time polymerase chain reaction (RT-PCR) and patch-clamp electrophysiology was used. Isolation of rat ASMCs from bronchial strips for the patch-clamp electrophysiology as well as RNA isolation from rat trachea for the RT-PCR were performed using methods as described in Brueggemann et al., “KCNQ (Kv7) potassium channel activators as bronchodilators: combination with a β2-adrenergic agonist enhances relaxation of rat airways,” Am J Physiol Lung Cell Mol Physiol (in press), incorporated herein by reference.
Therefore K^+ currents in enzymatically dispersed rat airway myocytes were measured using patch-clamp electrophysiology.
After 10 minutes of MeCh treatment, the time course recording was interrupted for 10 minutes for measurement of steady-state I-V relationship (time break indicated by vertical gray lines). Then, after an additional one minute recording at −20 mV holding voltage, retigabine (10 μM) was applied in the presence of MeCh for 5 minutes. The time course recording was interrupted again for ten minutes for measurement of steady-state I-V relationship and, after an additional one minute time course recording, XE991 (1 μM) was applied in the presence of MeCh and retigabine for ten minutes.
The investigation examined whether the bronchorelaxant effects of long-acting β2-adrenergic receptor agonist, formoterol, were mediated via activation of KCNQ channels in rat airway myocytes. […] The time course recording was interrupted for 10 minutes for measurement of steady-state I-V relationship (time break indicated by vertical gray lines). After an additional 5 minutes recording, retigabine (10 μM) was applied in the continued presence of formoterol. The time course recording was interrupted again for 10 minutes for recording of steady-state I-V curves, and, after an additional 5 minutes recording, XE991 (1 μM) was applied in the presence of retigabine.

[3] = system: rat bronchioles in precision-cut lung slices (PCLS); assay: Airway constriction/relaxation in rat precision-cut lung slices (PCLS); details: for bronchorelaxant action when XE991 is included: with XE991 10 μM
Method: Another investigation was performed to investigate the ability of KCNQ channel activators to attenuate MeCh-induced concentration-dependent constriction of rat bronchioles in precision-cut lung slices (PCLS). The PCLS were prepared using methods described by Brueggemann et al., “KCNQ (Kv7) potassium channel activators as bronchodilators: combination with a β2-adrenergic agonist enhances relaxation of rat airways,” Am J Physiol Lung Cell Mol Physiol (in press). PCLS were superfused with increasing concentrations of MeCh in the range from 100 nM to 1 μM. Each concentration was applied for thirty minutes, followed by a forty-five minute washout prior to application of the next MeCh concentration (FIG. 12A,B). […] Percent of airway constriction, relative to the cross-sectional area measured before the initial MeCh treatment, was calculated for each MeCh concentration and plotted against concentration of MeCh.
Bronchorelaxant effects were further assessed by measuring the extent of bronchoconstriction when MeCh was applied in the absence or presence of different structurally unrelated KCNQ channel activators (or vehicle).
FIG. 13C is a representative time course of changes in lumenal area of a small airway in rat PCLS on application of 230 nM MeCh (thirty minutes) followed by application of 230 nM MeCh in the presence of 10 nM formoterol (FF, thirty minutes). Dashed vertical lines marked “max” and “final” indicate 1 minute time intervals where the maximum or final relaxation was measured relative to the MeCh-induced constriction (measured during the last minute of MeCh alone). FIG. 13D is a representative time course of changes in lumenal area of a small airway treated as in panel C, except that 10 μM retigabine was included with the formoterol treatment (“FF+R,” thirty minutes).
The amount of desensitization for each concentration of formoterol in the absence and presence of 10 μM retigabine was estimated by subtraction of final relaxation (after thirty-minute treatment) from maximal relaxation.
To further investigate the desensitization to formoterol in rat PCLS, formoterol (10 nM) was applied twice, at a 90 minute interval, to airways constricted repetitively with 230 nM MeCh.

vascular Kv7 channels = assay: Electrophysiology of Kv7 currents in vascular smooth muscle cells; format: cell-based, rat and human; details: for effect on vascular Kv7 channels: vascular smooth muscle cells
Method: The scope of the present invention further encompasses the tools used to measure vascular Kv7 channel activities and/or functional contributions of these channels in vascular smooth muscle cells. […] For example, flupirtine is a known Kv7 channel activator used to treat pain; plasma concentrations achieved clinically can be as high as about 12 μM with a 100 mg dose (Abrams et al., “Pharmacokinetics of flupirtine in elderly volunteers and in patients with moderate renal impairment,” Postgraduate Medical Journal, 64: 361-363 (1988)) and doses up to about 600 mg are routinely given to treat chronic pain. […] Further indications to support such predictions may be obtained by measuring the effects of drugs on constriction/dilation of pressurized arteries.

Sprague-Dawley rats = assay: Mean arterial pressure and mesenteric vascular resistance in anesthetized instrumented rats; format: in vivo, rat
Kv7 channels = assay: Perforated patch clamp of Kv7 currents in freshly isolated guinea pig ASMCs; format: cell-based
Method: Another investigation relating to this aspect of the invention was directed to investigating Kv7 currents in freshly dissociated guinea pig ASMCs. […] 197-218 (1992), ASMCs were isolated from guinea pig bronchioles by enzymatic digestion and whole cell perforated patch clamp electrophysiology was used to record Kv7 currents. Kv7 currents were recorded in isolation from other ionic currents by including 100 μM gadolinium chloride in the external solution and applying relatively long (about five second) voltage steps, during which many other classes of channels inactivate.

[4] = randomized clinical trials / clinical studies; cited from earlier work
[5] = 100 mg dose; cited from earlier work
human PCLS = assay: Airway relaxation in human PCLS from an asthmatic lung; details: 30 pM alone, thirty-minute treatment (H1+F)
Description: FIG. 15A is a representative recording of airway area from a PCLS derived from an asthmatic human lung.

[6] = system: ovalbumin-sensitized guinea pigs; assay: Aerosolized ovalbumin challenge with inhaled retigabine in guinea pigs; details: thirty-minute exposure with ovalbumin, doses up to 1 mM
Method: To assess the feasibility of inhalational therapy with a Kv7 channel activator, an investigation was conducted to assess the ability of retigabine to exert a therapeutic anti-bronchospastic benefit in vivo. […] This model involves a series of three intraperitoneal injections of ovalbumin (OA) or saline (as control) over a one week period, followed by a two-week sensitization period, and finally challenge with aerosolized ovalbumin.
In the investigation, two saline-control and two ovalbumin-sensitized animals were exposed to aerosolized ovalbumin on three consecutive days, but in this case the ovalbumin treatment was administered with varying doses of retigabine on consecutive days.

[7] = 10 nM, 230 nM MeCh (FIG. 14A,C)
[8] = 10 nM, 90 minute interval (FIG. 14A,C)
[9] = formoterol 10 nM alone (FIG. 14B,D)

Sequence of vascular L-type Ca^2+ channels (Q13936 whole entry): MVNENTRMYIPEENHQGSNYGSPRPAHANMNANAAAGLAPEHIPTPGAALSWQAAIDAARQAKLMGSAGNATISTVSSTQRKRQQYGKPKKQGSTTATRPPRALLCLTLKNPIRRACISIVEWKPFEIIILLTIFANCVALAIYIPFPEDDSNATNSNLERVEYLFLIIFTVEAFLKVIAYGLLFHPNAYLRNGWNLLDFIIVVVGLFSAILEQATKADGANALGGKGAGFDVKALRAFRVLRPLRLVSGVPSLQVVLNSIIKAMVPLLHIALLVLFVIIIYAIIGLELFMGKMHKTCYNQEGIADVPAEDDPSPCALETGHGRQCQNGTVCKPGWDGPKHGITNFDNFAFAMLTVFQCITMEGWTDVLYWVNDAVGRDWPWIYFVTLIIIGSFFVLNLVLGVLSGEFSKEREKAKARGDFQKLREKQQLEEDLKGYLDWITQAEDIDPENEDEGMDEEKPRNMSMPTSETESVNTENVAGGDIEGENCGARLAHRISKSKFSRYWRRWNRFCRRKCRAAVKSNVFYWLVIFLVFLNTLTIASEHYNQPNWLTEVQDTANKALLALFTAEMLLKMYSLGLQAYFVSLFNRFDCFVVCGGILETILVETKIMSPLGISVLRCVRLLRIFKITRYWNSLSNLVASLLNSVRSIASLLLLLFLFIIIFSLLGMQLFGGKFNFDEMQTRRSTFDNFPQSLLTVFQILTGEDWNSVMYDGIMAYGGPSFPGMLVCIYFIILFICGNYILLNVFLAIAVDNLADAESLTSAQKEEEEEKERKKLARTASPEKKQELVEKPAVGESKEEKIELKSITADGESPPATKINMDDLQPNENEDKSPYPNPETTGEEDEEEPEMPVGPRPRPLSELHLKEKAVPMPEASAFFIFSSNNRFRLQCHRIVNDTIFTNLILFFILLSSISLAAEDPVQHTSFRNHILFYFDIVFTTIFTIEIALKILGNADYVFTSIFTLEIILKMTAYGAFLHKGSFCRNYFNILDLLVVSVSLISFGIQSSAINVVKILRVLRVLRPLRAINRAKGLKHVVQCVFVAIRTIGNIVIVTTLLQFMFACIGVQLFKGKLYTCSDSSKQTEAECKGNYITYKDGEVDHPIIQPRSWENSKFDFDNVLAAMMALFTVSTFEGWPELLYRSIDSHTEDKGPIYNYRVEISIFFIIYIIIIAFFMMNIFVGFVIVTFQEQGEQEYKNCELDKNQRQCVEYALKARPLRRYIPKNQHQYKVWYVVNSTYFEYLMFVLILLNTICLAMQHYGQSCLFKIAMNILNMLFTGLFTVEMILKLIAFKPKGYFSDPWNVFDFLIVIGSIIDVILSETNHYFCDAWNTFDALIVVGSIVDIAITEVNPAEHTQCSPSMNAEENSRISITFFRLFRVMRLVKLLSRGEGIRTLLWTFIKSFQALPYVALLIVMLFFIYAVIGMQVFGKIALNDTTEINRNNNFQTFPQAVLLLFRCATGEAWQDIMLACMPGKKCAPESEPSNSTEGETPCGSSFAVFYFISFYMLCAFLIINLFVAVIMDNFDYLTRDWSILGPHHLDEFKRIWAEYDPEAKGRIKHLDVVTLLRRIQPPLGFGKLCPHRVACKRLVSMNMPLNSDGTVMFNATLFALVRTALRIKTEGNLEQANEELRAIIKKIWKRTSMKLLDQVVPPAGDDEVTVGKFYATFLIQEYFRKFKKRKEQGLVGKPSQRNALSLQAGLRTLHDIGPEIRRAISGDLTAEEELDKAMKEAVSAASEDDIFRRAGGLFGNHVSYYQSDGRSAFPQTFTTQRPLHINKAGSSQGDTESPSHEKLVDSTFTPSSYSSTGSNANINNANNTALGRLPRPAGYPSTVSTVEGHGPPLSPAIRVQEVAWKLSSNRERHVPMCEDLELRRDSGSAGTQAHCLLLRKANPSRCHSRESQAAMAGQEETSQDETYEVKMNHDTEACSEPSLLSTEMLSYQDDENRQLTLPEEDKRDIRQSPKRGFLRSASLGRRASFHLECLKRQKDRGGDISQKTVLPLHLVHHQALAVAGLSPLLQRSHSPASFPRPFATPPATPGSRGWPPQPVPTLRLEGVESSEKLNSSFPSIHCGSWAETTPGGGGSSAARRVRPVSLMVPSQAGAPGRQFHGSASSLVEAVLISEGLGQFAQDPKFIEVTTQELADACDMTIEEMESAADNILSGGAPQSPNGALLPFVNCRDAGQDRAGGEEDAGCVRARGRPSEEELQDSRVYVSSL
Sequence of vascular L-type Ca^2+ channels (P54284 whole entry partner): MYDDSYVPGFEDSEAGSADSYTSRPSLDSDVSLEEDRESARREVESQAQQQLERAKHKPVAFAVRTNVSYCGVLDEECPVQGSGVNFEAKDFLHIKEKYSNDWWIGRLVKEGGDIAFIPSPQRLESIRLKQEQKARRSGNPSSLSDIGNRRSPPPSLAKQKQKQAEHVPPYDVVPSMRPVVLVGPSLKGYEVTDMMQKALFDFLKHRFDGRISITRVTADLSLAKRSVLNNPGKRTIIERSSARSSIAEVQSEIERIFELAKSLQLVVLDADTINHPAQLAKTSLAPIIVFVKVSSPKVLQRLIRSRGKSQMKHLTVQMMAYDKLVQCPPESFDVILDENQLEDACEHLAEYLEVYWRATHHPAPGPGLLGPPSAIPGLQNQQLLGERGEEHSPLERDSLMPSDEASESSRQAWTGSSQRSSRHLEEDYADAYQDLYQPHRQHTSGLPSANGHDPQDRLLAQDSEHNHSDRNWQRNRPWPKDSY
Sequence of vascular L-type Ca^2+ channels (P54289 25-956 partner limits assumed): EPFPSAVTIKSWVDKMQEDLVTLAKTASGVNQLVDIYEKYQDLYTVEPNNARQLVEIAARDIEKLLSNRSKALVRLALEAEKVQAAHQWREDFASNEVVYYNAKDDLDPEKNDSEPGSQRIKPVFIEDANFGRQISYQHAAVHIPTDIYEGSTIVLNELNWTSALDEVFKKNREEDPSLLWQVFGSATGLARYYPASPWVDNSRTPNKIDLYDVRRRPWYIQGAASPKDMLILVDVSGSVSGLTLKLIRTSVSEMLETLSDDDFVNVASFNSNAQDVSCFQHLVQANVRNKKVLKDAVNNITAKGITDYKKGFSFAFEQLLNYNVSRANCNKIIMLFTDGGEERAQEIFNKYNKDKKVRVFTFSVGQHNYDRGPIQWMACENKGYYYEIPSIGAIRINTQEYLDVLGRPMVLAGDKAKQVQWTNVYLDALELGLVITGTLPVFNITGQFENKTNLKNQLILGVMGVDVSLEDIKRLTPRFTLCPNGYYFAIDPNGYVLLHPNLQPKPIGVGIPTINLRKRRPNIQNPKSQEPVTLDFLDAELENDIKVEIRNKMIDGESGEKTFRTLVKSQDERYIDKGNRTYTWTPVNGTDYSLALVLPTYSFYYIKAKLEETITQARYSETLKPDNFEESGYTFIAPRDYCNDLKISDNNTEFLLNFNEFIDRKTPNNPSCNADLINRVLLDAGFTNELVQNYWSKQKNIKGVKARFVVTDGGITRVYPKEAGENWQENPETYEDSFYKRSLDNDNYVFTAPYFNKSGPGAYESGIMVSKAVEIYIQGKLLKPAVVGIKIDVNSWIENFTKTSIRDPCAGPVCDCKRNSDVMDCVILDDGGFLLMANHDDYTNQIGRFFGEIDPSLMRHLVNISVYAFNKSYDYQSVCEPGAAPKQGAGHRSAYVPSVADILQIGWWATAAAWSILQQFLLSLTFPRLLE
Sequence of vascular L-type Ca^2+ channels (P54289 957-1103 partner limits assumed): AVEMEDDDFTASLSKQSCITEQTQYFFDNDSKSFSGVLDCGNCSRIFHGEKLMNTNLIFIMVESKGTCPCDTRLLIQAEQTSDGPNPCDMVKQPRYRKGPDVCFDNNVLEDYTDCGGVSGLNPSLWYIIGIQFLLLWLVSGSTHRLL

Compound: Cc1ccc(C)c(-c2cc(C(F)(F)F)nn2-c2ccc(S(N)(=O)=O)cc2)c1 [2,5-dimethyl-celecoxib]
- anti-cancer activity [1]: stronger anti-cancer activity than celecoxib itself
- effect on vascular L-type Ca^2+ channels [2]: inhibitor
- effect on KCNQ currents at −20 mV holding voltage (KCNQ channels; rat ASMCs, 10 μM): effective as an activator
- reduction of MeCh-induced airway constriction ([3]; 10 μM, 230 nM MeCh): 23%
- bronchorelaxant action when XE991 is included [3]: not significantly reduced
- effect on vascular Kv7 channels (vascular Kv7 channels): potent activator

Compound: O=C1N(c2ccccc2)c2ccccc2C1(Cc1ccncc1)Cc1ccncc1 [linopirdine]
- mean arterial pressure (MAP) (Sprague-Dawley rats): opposite effects
- mesenteric vascular resistance (MVR) (Sprague-Dawley rats): opposite effects
- effect on ASMC Kv7 currents (Kv7 channels; celecoxib 10 μM at −20 mV): complete suppression

Compound: CS(=O)(=O)c1ccc(C2=C(c3ccccc3)C(=O)OC2)cc1 [rofecoxib]
- effect on vascular L-type Ca^2+ channels [2]: does not exhibit either effect
- risk of cardiovascular (CV) events [4]: significantly increased the risk of cardiovascular (CV) events
- effect on vascular Kv7 channels (vascular Kv7 channels): does not exhibit either effect

Compound: CCOC(=O)Nc1ccc(NCc2ccc(F)cc2)nc1N [flupirtine]
- plasma concentration achieved clinically [5]: about 12 μM
- increase of vascular Kv7 current (vascular Kv7 channels; 10 μM): 100%

Compound: COc1ccc(C[C@@H](C)NC[C@H](O)c2ccc(O)c(NC=O)c2)cc1.COc1ccc(C[C@@H](C)NC[C@H](O)c2ccc(O)c(NC=O)c2)cc1.O=C(O)/C=C/C(=O)O [formoterol, formoterol fumarate]
- relaxation of histamine-constricted asthmatic human airway (human PCLS): 18%
- effect on KCNQ currents at −20 mV holding voltage (KCNQ channels; rat ASMCs, 10 nM): did not enhance KCNQ currents
- final relaxation after thirty minutes, first application [3, 7]: 46±14%
- peak relaxation, first application [3, 7]: 68±10%
- final relaxation, second application [3, 8]: 32±6%
- peak relaxation, second application [3, 8]: 48±8%
- maximum relaxation of airways constricted with MeCh ([3]; at 1 μM, 230 nM MeCh): 72±5%
- time course of relaxation response ([3]; concentrations greater than or equal to 10 nM): noticeable time-dependent decline in the relaxation response
- final relaxation, acute exposure of the same slices [3, 9]: 34±6%
- peak relaxation, acute exposure of the same slices [3, 9]: 59±4%

Compound: CC(C)NCC(O)c1ccc(O)c(O)c1 (stereo not shown) [isoproterenol]
- effect on KCNQ currents at −20 mV holding voltage (KCNQ channels; rat ASMCs, 100 nM): ineffective in enhancement of KCNQ currents

Compound: O=C(O)Cc1ccccc1Nc1c(Cl)cccc1Cl [diclofenac]
- risk of cardiovascular (CV) events [4]: significantly increased the risk of cardiovascular (CV) events
- effect on vascular Kv7 channels (vascular Kv7 channels): pronounced effects

Compound: NCCc1c[nH]cn1 [histamine]
- effect on ASMC Kv7 currents (Kv7 channels; 30 μM): significantly suppressed

Compound: zinc pyrithione
- effect on KCNQ currents at −20 mV holding voltage (KCNQ channels; rat ASMCs, 100 nM): enhanced
- threshold of KCNQ channel activation (KCNQ channels; voltage step protocol, retigabine 10 μM, ZnPyr 100 nM): shifted the threshold of channel activation to more negative voltages
- reduction of MeCh-induced airway constriction ([3]; 1 μM, 230 nM MeCh, relative to vehicle): 21%
- bronchorelaxant action when XE991 is included [3]: suppressed or prevented

Compound: O=C1c2ccccc2C(Cc2ccncc2)(Cc2ccncc2)c2ccccc21 [XE991]
- effect on KCNQ currents in the presence of retigabine (KCNQ channels; 1 μM, subsequent application after retigabine (with MeCh or formoterol)): completely abolished; also recorded: effectively abolished
- effect on KCNQ currents at −20 mV holding voltage (KCNQ channels; rat ASMCs, 10 μM): inhibited
- effect on ASMC Kv7 currents (Kv7 channels; celecoxib 10 μM at −20 mV): complete suppression

Compound: CCOC(=O)Nc1ccc(NCc2ccc(F)cc2)cc1N [retigabine]
- effect on saline control animals [6]: no apparent effect
- reduction of MeCh-induced airway constriction ([3]; 10 μM, 230 nM MeCh): about 31%
- relaxation when applied alone ([3]; 10 μM, 230 nM MeCh): 45.7±4.9%
- EC50 ([3]; Rattus norvegicus, read-out: EC50 of relaxation of pre-constricted airways): 3600 ± 300 nM
- maximum relaxation ([3]; pre-constricted thirty minutes with 230 nM MeCh): 61±9%

Compound: Cc1ccc(-c2cc(C(F)(F)F)nn2-c2ccc(S(N)(=O)=O)cc2)cc1 [celecoxib]
- risk of cardiovascular (CV) events [4]: failed to demonstrate an increased CV risk

Compound: CC(=O)OC(C)C[N+](C)(C)C (stereo not shown) [methacholine]
- reduction of KCNQ currents at −20 mV (KCNQ channels; rat ASMCs, 230 nM, n=7): 55.1±6.2%
- EC50 ([3]; rat PCLS, 100 nM to 1 μM, Hill fit, n=5, read-out: EC50 of airway constriction): 248 ± 49 nM
- Hill coefficient of airway constriction ([3]; rat PCLS, n=5): 1.6±0.2
- maximal constriction ([3]; rat PCLS, n=5): 81±7%
- effect on ASMC Kv7 currents (Kv7 channels; 100 nM, −20 mV): completely suppressed
